From patent US20110268711A1, “PANCREATIC STELLATE CELL SPECIFIC PROMOTER AND USES THEREOF” (AGENCY FOR SCIENCE, TECHNOLOGY AND RESEARCH, priority 2007, published 2011) come the findings set out here.

This assay relates to 2.2-kb hGFAP promoter (GFAP-LacZ transgene) in SAM-K cells. Format: cell-based. The conditions noted are these: for decrease of relative β-Gal activity / decrease in β-Gal activity: vs 0.2% DMSO control; for decrease in β-Gal activity: kinase inhibitor 10 μM; for induction of GFAP-lacZ transgene expression (β-Gal activity) by exogenous cytokines: TGF-β 1 and 10 ng/ml, PDGF-BB 10 ng/ml, TNF-α 10 ng/ml, 24, 32, 48 and 60 hours after treatment. The method, then:
Transfection and isolation of stable cell lines: The 2.2-kb hGFAP-LacZ (Maubach, G., et al., World J Gastroenterol, 2006, 12(5): 723-30) or the 2.2-kb hGFAP-DsRed plasmid was used to transfect PSC lines, using LIPOFECTAMINE™ 2000 (Invitrogen, CA, USA) according to the manufacturer's instructions. DsRed expression was identified under fluorescence microscope (Leica, Wetzlar, Germany). To isolate the stable clones expressing GFAPLacZ in SAM-K cell line, 24 hours after transfection, the cell culture medium was changed into medium containing Zeocin (500 μg/ml, Invitrogen, CA, USA). The single clones were isolated by dilution in the 96 well plates, the positive β-galactosidase (β-Gal) clones were identified by β-Gal staining kit from Invitrogen (CA, USA). Stable clones were maintained in culture medium containing 250 μg/ml Zeocin.
Treatment of PSCs with cell signaling inhibitors: Before treatment with different factors, SAM-K cells stably expressing the GFAP-LacZ at 70-80% confluence were starved in 0.5% FBS overnight, TGF-β (1 ng/ml, 10 ng/ml), PDBF-BB (10 ng/ml), and TNF-α (10 ng/ml) treatments were carried out at different time points, PBS buffer (0.2%) treatment served as control. Kinase inhibitors (10 μM), including LY 294002, U0126, SP600125, SB 203580, retinol and its metabolites, including retinol, 9-RA, ATRA, were applied to the cell culture medium at both 2 μM and 5 μM concentrations. Treatment in 0.2% DMSO served as control. The transgenic β-Gal activity was quantified at various times following treatment.
To obtain cryostat sections, the pancreas was removed from both GFAP-LacZ transgenic mouse and wild type mouse of the same FVB/N genetic background, and were fixed in 4% PFA fixative for 30 minutes. The fixed tissues were infiltrated overnight with 30% sucrose. Small pieces of tissue were mounted in OCT medium, and 14-μm sections were collected onto POLYSINE™ slides (Menzel GmbH & Co KG, Braunschweig, Germany). The expression of lacZ gene was detected using a staining kit from Invitrogen. The sections were stained with X-gal substrate overnight at room temperature, and subsequently counter-stained with eosin, prior to being mounted on slides with HYDROMOUNT™ (National diagnostics, Georgia, USA). To quantify the GFAP-LacZ expression, the β-Gal activity in the total cell extracts was measured with an enzymatic assay kit (Promega, WI, USA).
Statistical analysis: All quantitative results were presented as mean±SE; data were analyzed with Student t-test.

Entries after “also recorded” stand apart in the source; their conditions may differ. Like-named read-outs stand apart in the source and are kept apart here.

As to `CC1=C(/C=C/C(C)=C\C=C\C(C)=C\C(=O)O)C(C)(C)CCC1` [9-RA, 9-cis retinoic acid], the “decrease of relative β-Gal activity” value (2 μM, 24 hours after treatment) is recorded as “about 44%”; the “decrease of relative β-Gal activity” value (2 μM, 48 hours after treatment) is reported as 37%; the “decrease of relative β-Gal activity” value (5 μM, 24 hours after treatment) is “about 48%”; the “decrease of relative β-Gal activity” value (5 μM, 48 hours after treatment) is on record as “about 46%”.
Taken in the same sequence, the figures for `CC1=C(/C=C/C(C)=C/C=C/C(C)=C/C(=O)O)C(C)(C)CCC1` [ATRA, all-trans retinoic acid] were roughly 42%, 33%, roughly 42% and roughly 31%.
For `O=c1cc(N2CCOCC2)oc2c(-c3ccccc3)cccc12` [LY 294002], the “decrease in β-Gal activity” value is on record as roughly 19% (24 hours after treatment) and “about 15%” (48 hours after treatment).
For `C[S+]([O-])c1ccc(-c2nc(-c3ccncc3)c(-c3ccc(F)cc3)[nH]2)cc1` (centres unmarked) [SB 203580], in that order: “not as significant” and “no significant effects”.
As to `Oc1c2ccccc2c2c3c(cccc13)N=N2` [SP 600125], the “decrease in β-Gal activity” value reads like this: (24 hours after treatment) “about 25%”; (48 hours after treatment) “about 10%”.
For `N#CC(=C(/N)Sc1ccccc1N)/C(C#N)=C(\N)Sc1ccccc1N` [U0126], the “decrease in β-Gal activity” value runs as follows: (24 hours after treatment) “approximately 40%”; (48 hours after treatment) “about 15%”.
As for `CC1=C(/C=C/C(C)=C/C=C/C(C)=C/CO)C(C)(C)CCC1` [retinol], the “decrease of relative β-Gal activity” value is, setting by setting: (2 μM, 24 hours after treatment) roughly 33%; (2 μM, 48 hours after treatment) 49%; (5 μM, 24 hours after treatment) roughly 38%; (5 μM, 48 hours after treatment) “about 48%”.
In the case of “TGF-β: recombinant TGF-β1 from R&D, pro-fibrogenic cytokine”, the “induction of GFAP-lacZ transgene expression (β-Gal activity) by exogenous cytokines” value (shortened to “induction”) is reported as “None of the treatments specifically induced transgene expression; also recorded: No significant change in enzymatic activity”.
TNF-α: the “induction” value was “None of the treatments specifically induced transgene expression; also recorded: No significant change in enzymatic activity”.

B1: PDGF-BB: recombinant platelet derived growth factor-BB from R&D (protein, UniProt P01127 82-190, looked up)
Platelet-derived growth …: SLGSLTIAEPAMIAECKTRTEVFEISRRLIDRTNANFLVWPPCVEVQRCSGCCNNRNVQCRPTQVQLRPVQVRKIEIVRKKPIFKKATVTLEDHLACKCETVAAARPVT
Consider B1, for which the “induction” value is on record as “None of the treatments specifically induced transgene expression; also recorded: No significant change in enzymatic activity”.
